Values joined by “and” are separate entries in the source; they are usually repeats but may differ in a detail not shown here. Equal entries are not always repeated.
Test system: CEM cells
Assay: Targeted LC-MS/MS-MRM of de novo and salvage dCTP biosynthesis (nucleotide pools and newly replicated DNA)
Type: cell-based, human
Set-up: key to Substrate utilization Glucose / Substrate utilization dC: ↓: partial decrease/inhibition; ↓↓↓: nearly complete inhibition; ↑: increase; ⟷: no change
Procedure: Cells were transferred into RPMI-1640 without glucose and supplemented with 10% dialyzed FBS (Gibco) containing the following labeled substrates: precursors for de novo [U-^13C6]glucose (Sigma-Aldrich, 389374) at 11 mM; precursors for purine salvage [U-^13C10,^15N5]dA (Cambridge Isotopes, CIL 3896), [^15N5]dA (Cambridge Isotopes, NLM-3895) and [^15N5]dG (Cambridge Isotopes, NLM-3899) at 5 µM or as indicated; and precursors for pyrimidine salvage: [U-^13C9,^15N3]dC (Silantes, 124603602) and [U-^13C10,^15N2]dT (Cambridge Isotopes, CNLM-3902) at 5 µM and [^15N2]orotate (Cambridge Isotopes, NLM-1048) at indicated concentrations. The cells were incubated for 12 h or as indicated before sample collection and processing.
The rates of dCTP incorporation into the DNA were determined using linear regression with procedure GLM in SAS (v. 9.4). DNA % label was transformed using a shifted log addition of 1 due to the presence of zeros in the data set. Rates were calculated using the slope of the regression line for the log transformed data and are presented in the table with the associated standard errors, along with the ratio between the rate of incorporation into DNA by the de novo and salvage pathways (Table 1).
Cell cycle synchronization. Cells were treated with a CDK4/6 inhibitor, Pablociclib or PD-0332991 (Selleckchem, S1116) for 18 h to synchronize them in the G1 phase. Subsequently, cells were washed twice with PBS containing 2% FBS (Omega Scientific) and released into fresh media. […]
Clinical Microarray Core on an Illumina HiSeq3000 using the SeqCap EZ Exome Enrichment Kit v3.0 (Roche).
Reads were mapped to UCSC hg19 (bwa-mem), deduplicaed (PicardTools), and subjected to base quality score recalibration and realignment around known indels according to the Broad Institute Genome Analysis Toolkit (GATK) Best Practices v3.0. Variants in genes associated with nucleotide biosynthesis were identified using the GATK HaplotypeCaller, and annotated with Oncotator (http://portals.broadinstitute.org/oncotator/). dNTP sample processing. 0.5 – 1 x 10^6 cells were collected into 1.5 mL microcentrifuge tubes and centrifuged (450 x g, 4 min, 4 °C). The supernatant was carefully aspirated and the cells were washed twice with 1 mL of cold PBS, followed each time by centrifugation (450 x g, 4 min 4 °C). The PBS were aspirated.
Thereafter, the pellets were treated with 10 µL of 10% trifluoroacetic acid with internal standards (1 µM […]
s, and incubated on ice for 10 min. 40 µL of 500 mM ammonium acetate, pH = 9.3, with the same internal standard (1 µM [15N3]dCMP and [15N3]dCTP) was then added and the samples were vigorously vortexed again for 30 s. The samples were centrifuged (14,000 x g, 10 min, 4 °C) to remove cell debris. The supernatants (~ 40 µL) were transferred into HPLC injector vials. Stock solutions (10 mM) of rCTP, rCDP, dCMP, dCDP, and dCTP (Sigma Aldrich) were prepared individually in water, and stored at –20 °C before use to generate calibration standards. Calibration standards were prepared and mixed together in water with internal standards (1 µM [15N3]dCMP and [15N3]dCTP) to make working stock concentrations in 100 nM – 100 µM range.
Calibration standards were diluted 10-fold into the same nucleotide extraction solution of 10% TFA/500 mM ammonium acetate (1:4, v/v) with internal standards (1 µM [15N3]dCMP and [15N3]dCTP) to give a final concentration in 10 nM – 10 µM. Nucleotide and calibration samples were processed together to minimize […]
DNA sample processing. Genomic DNA from 0.5 – 1 x 10^4 cells was extracted using the Quick-gDNA MiniPrep kit (Zymo Research, D3021) and hydrolyzed to nucleosides using the DNA Degradase Plus kit (Zymo Research, E2021), following manufacturer-supplied instructions. In the final step of DNA extraction, 50 µL of […]
water was used to elute the DNA into 1.5 mL microcentrifuge tubes. A nuclease solution (5 µL; 10X buffer/DNA Degradase Plus™/water, 2.5/1/1.5, v/v/v) was added to 20 µL of the eluted genomic DNA in an HPLC injector […]
vial. […]

[1] = CEM 12 h, 1 uM VE-822, 1 uM DI-82, 500 nM 3-AP, #1-#3
[2] = CEM after release from G1 arrest

COc1ccc(-c2nc([C@@H](C)Sc3nc(N)cc(N)n3)c(C)s2)cc1OCCNS(C)(=O)=O [dCKi]
reduction of the amount of free dCTP (12 h time point after release from G1 arrest): ~ 50%
% sum abundance, de novo DNA-C, mass increase in nucleobase +0, in deoxyribose +3 [1]: 0.18% and 0.19%
% sum abundance, de novo DNA-C, mass increase in nucleobase +0, in deoxyribose +4 [1]: 0.58% and 0.55%
% sum abundance, de novo DNA-C, mass increase in nucleobase +0, in deoxyribose +5 [1]: 9.50% and 9.45% and 9.86%
% sum abundance, de novo DNA-C, mass increase in nucleobase +1, in deoxyribose +3 [1]: 0.00%
% sum abundance, de novo DNA-C, mass increase in nucleobase +1, in deoxyribose +4 [1]: 0.09% and 0.07%
% sum abundance, de novo DNA-C, mass increase in nucleobase +1, in deoxyribose +5 [1]: 1.18% and 1.24%
% sum abundance, de novo DNA-C, mass increase in nucleobase +2, in deoxyribose +4 [1]: 0.053% and 0.05%
% sum abundance, de novo DNA-C, mass increase in nucleobase +2, in deoxyribose +5 [1]: 0.82% and 0.79% and 0.87%
% sum abundance, de novo DNA-C, mass increase in nucleobase +3, in deoxyribose +4 [1]: 0.00%
% sum abundance, de novo DNA-C, mass increase in nucleobase +3, in deoxyribose +5 [1]: 0.20% and 0.19%
% sum abundance, de novo DNA-C, mass increase in nucleobase +4, in deoxyribose +4 [1]: 0.00%
% sum abundance, de novo DNA-C, mass increase in nucleobase +4, in deoxyribose +5 [1]: 0.00%
% sum abundance, salvage DNA-C, mass increase in nucleobase +5, in deoxyribose +0 [1]: 0.00%
% sum abundance, salvage DNA-C, mass increase in nucleobase +5, in deoxyribose +4 [1]: 0.00%
% sum abundance, salvage DNA-C, mass increase in nucleobase +5, in deoxyribose +5 [1]: 0.00%
% sum abundance, salvage DNA-C, mass increase in nucleobase +6, in deoxyribose +0 [1]: 0.00%
% sum abundance, salvage DNA-C, mass increase in nucleobase +6, in deoxyribose +4 [1]: 0.00%
% sum abundance, salvage DNA-C, mass increase in nucleobase +6, in deoxyribose +5 [1]: 0.00%
% sum abundance, salvage DNA-C, mass increase in nucleobase +7, in deoxyribose +0 [1]: 0.00%
% sum abundance, salvage DNA-C, mass increase in nucleobase +7, in deoxyribose +4 [1]: 0.00%
% sum abundance, salvage DNA-C, mass increase in nucleobase +7, in deoxyribose +5 [1]: 0.07% and 0.09% and 0.0853%
% sum abundance, unlabeled DNA-C, mass increase in nucleobase +0, in deoxyribose +0 [1]: 77.58% and 77.11% and 77.29%
% sum abundance, unlabeled DNA-C, mass increase in nucleobase +0, in deoxyribose +1 [1]: 4.40% and 4.55% and 4.26%
% sum abundance, unlabeled DNA-C, mass increase in nucleobase +0, in deoxyribose +2 [1]: 0.75% and 0.68% and 0.59%
% sum abundance, unlabeled DNA-C, mass increase in nucleobase +1, in deoxyribose +0 [1]: 4.14% and 4.45% and 4.26%
% sum abundance, unlabeled DNA-C, mass increase in nucleobase +1, in deoxyribose +1 [1]: 0.23% and 0.29% and 0.22%
% sum abundance, unlabeled DNA-C, mass increase in nucleobase +1, in deoxyribose +2 [1]: 0.00%
% sum abundance, unlabeled DNA-C, mass increase in nucleobase +2, in deoxyribose +0 [1]: 0.23% and 0.31% and 0.29%
% sum abundance, unlabeled DNA-C, mass increase in nucleobase +2, in deoxyribose +1 [1]: 0.00%
% sum abundance, unlabeled DNA-C, mass increase in nucleobase +2, in deoxyribose +2 [1]: 0.00%
% sum abundance, unlabeled DNA-C, mass increase in nucleobase +3, in deoxyribose +0 [1]: 0.00%
% sum abundance, unlabeled DNA-C, mass increase in nucleobase +3, in deoxyribose +1 [1]: 0.00%
% sum abundance, unlabeled DNA-C, mass increase in nucleobase +4, in deoxyribose +0 [1]: 0.00%
De novo: rate of dCTP incorporation into newly replicated DNA (slope ± standard error of regression line) [2]: 0.23 ± 0.01 arbitrary unit
Ratio (salvage/de novo) [2]: 0.082
Salvage: rate of dCTP incorporation into newly replicated DNA (slope ± standard error of regression line) [2]: 0.019 ± 0.004 arbitrary unit
reduction of dCK activity (contribution of labeled [13C9,15N3]dC to intracellular dCMP) (asynchronous CEM, 12 h): ~ 90%
Substrate utilization Glucose (summary Fig. 2g, CEM cells): ↑
Substrate utilization dC (summary Fig. 2g, CEM cells): ↓↓↓
